This note sets out measurements from patent publication US10377791B2, “Therapeutically active estratrienthiazole derivatives as inhibitors of 17 B-hydroxysteroid dehydrogenase, type 1” (FORENDO PHARMA LTD, priority 2013, dated 2019).

For data set [1] the following is noted: human, tissue homogenate, 1 h.
Method: The in vitro metabolic stability of the compounds of the invention was determined for exemplified compounds using human liver microsome and homogenate incubations. The incubation time points used with or without appropriate cofactors were 0 min and 60 min. Samples were collected at both time points and substrates were detected using LC/PDA/TOF-MS.
The target of data set [2] is T1, recombinant human 17β-HSD2 (Homo sapiens, UniProt P37059).
T1 construct: made in house; host or cells: Sd9 (Sf9) insect cells, baculovirus (Bac to Bac Expression System)
T1 sequence (P37059 1-387): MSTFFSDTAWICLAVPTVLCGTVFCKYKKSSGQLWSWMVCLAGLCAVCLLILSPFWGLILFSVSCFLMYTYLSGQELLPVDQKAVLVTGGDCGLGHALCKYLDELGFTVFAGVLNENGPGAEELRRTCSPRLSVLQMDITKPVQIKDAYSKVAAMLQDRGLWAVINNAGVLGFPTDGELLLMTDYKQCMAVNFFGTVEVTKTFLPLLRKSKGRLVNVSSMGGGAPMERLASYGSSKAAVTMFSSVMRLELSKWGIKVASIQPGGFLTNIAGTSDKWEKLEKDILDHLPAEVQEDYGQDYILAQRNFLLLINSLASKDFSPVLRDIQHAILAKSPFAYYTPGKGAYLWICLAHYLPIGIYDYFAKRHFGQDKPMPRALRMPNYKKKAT
The data set can be described thus: Inhibition of recombinant human 17β-HSD2. In kind it is biochemical. The following applies: inhibitor at 1 μM; 50 nM estradiol, 1 mM NADH, 30 min at RT; read-out: 17β-HSD2 Inhibition % at 1 μM. Put shortly: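 Membrane extract of baculovirus-expressed enzyme in Sf9 cells (4 μg/ml) incubated in 20 mM KH2PO4 pH 8.5 with 50 nM estradiol (³H-tracer) and 1 mM NADH, 30 min at RT, 1% DMSO, inhibitor at 1 μM or 0.1 μM. TCA-stopped; estradiol-to-estrone conversion by radio-HPLC; % inhibition = 100 − % conversion.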

In data set [3] the target is T2, recombinant human 17β-HSD1 (Homo sapiens, UniProt P14061).
T2 construct: made in house; host or cells: Sd9 (Sf9) insect cells, baculovirus (Bac to Bac Expression System)
T2 sequence (P14061 1-328): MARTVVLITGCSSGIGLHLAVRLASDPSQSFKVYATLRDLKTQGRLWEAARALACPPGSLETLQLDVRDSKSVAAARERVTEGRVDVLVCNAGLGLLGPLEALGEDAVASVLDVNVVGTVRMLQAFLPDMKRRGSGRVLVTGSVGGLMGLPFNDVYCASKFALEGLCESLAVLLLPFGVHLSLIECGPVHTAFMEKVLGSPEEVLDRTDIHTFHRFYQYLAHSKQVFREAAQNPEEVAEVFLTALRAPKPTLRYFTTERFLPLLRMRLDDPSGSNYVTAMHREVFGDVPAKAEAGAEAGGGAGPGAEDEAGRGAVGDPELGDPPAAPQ
The data set can be described thus: Inhibition of recombinant human 17β-HSD1. In kind it is biochemical. Conditions: inhibitor at 1 μM; 30 nM estrone, 1 mM NADPH, 30 min at RT; read-out: 17β-HDS1 Inhibition % at 1 μM. Put shortly:
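Microsomal enzyme from baculovirus-infected insect cells (1 μg/ml) incubated 30 min at RT in 20 mM KH2PO4 pH 7.4 with 30 nM ³H-estrone and 1 mM NADPH, inhibitor at 1 μM or 0.1 μM, 1% DMSO. TCA-stopped; estrone/estradiol separated by radio-HPLC; % inhibition = 100 − % conversion.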

For the molecule `Cc1cnc(NC(=O)CC[C@@H]2CC(=O)[C@@]3(C)CCC4c5cc(Br)c(O)c(Br)c5CCC4C23)s1` (stereo partly drawn) [Compound 58, 3-((13S,15R)-2,4-dibromo-3-hydroxy-13-methyl-17-oxo-7,8,9,11,12,13,14,15,16,17-decahydro-6H-cyclopenta[a]phenanthren-15-yl)-N-(5-methylthiazol-2-yl)propanamide], the “In vitro metabolic stability, % remaining after 60 min” value in data set [1] was determined as 81%. Besides, the inhibition at 1 µM in data set [2] is 5%; in data set [3], 95%.

Turning to `Cc1cnc(NC(=O)CC[C@@H]2CC(=O)[C@@]3(C)CCC4c5ccccc5CCC4C23)s1` (stereo partly drawn) [Compound 83, 3-((13S,15R)-13-methyl-17-oxo-7,8,9,11,12,13,14,15,16,17-decahydro-6H-cyclopenta[a]phenanthren-15-yl)-N-(5-methylthiazol-2-yl)propanamide], the “In vitro metabolic stability, % remaining after 60 min” value in data set [1] was found to be 74%. Moreover, the inhibition at 1 µM is 1% in data set [2] and 92% in data set [3].

The inhibition is the change of the read-out against control, counted positive when it falls.
